For orientation: IC50 means the concentration needed to halve the response being measured.

Each structure is given as a SMILES string.

The record followed here is patent publication US12440484B2, “1,3,4-oxadiazole homophthalimide derivative compounds as histone deacetylase 6 inhibitor, and the pharmaceutical composition comprising the same” (Chong Kun Dang Pharmaceutical Corp., priority 2019, dated 2025).

The target in one experiment is HDAC6 human recombinant (Homo sapiens (Human), UniProt Q9UBN7). The experiment is described as follows: HDAC enzyme activity inhibition (in vitro), HDAC6 assay. The format is biochemical. Particulars: samples at 0.1, 1, 10, 100 and 1000 nM; 37° C. 60 minutes; fluorescence Ex 390, Em 460.
Another experiment deals with HDAC1 (Homo sapiens (Human), UniProt Q13547). Briefly: HDAC enzyme activity inhibition (in vitro), HDAC1 Fluorimetric Drug Discovery Assay Kit. The format is biochemical. Particulars: samples at 100, 1000 and 10000 nM; 37° C. 60 minutes; fluorescence Ex 390, Em 460.
Sequence of HDAC1 (Q13547 whole entry): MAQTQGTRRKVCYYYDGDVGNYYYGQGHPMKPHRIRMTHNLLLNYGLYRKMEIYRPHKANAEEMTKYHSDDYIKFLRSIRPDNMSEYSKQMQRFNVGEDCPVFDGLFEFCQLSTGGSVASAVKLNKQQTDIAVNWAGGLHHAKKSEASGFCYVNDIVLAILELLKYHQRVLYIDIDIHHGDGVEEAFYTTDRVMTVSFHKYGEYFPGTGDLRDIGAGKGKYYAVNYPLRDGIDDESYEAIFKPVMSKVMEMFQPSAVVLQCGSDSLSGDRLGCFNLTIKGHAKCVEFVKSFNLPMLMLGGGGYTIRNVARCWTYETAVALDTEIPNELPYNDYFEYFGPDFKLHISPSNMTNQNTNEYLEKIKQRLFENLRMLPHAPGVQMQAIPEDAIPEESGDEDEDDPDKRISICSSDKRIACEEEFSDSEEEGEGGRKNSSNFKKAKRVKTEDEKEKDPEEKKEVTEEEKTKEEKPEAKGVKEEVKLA

Sequence of HDAC6 human recombinant (Q9UBN7 whole entry): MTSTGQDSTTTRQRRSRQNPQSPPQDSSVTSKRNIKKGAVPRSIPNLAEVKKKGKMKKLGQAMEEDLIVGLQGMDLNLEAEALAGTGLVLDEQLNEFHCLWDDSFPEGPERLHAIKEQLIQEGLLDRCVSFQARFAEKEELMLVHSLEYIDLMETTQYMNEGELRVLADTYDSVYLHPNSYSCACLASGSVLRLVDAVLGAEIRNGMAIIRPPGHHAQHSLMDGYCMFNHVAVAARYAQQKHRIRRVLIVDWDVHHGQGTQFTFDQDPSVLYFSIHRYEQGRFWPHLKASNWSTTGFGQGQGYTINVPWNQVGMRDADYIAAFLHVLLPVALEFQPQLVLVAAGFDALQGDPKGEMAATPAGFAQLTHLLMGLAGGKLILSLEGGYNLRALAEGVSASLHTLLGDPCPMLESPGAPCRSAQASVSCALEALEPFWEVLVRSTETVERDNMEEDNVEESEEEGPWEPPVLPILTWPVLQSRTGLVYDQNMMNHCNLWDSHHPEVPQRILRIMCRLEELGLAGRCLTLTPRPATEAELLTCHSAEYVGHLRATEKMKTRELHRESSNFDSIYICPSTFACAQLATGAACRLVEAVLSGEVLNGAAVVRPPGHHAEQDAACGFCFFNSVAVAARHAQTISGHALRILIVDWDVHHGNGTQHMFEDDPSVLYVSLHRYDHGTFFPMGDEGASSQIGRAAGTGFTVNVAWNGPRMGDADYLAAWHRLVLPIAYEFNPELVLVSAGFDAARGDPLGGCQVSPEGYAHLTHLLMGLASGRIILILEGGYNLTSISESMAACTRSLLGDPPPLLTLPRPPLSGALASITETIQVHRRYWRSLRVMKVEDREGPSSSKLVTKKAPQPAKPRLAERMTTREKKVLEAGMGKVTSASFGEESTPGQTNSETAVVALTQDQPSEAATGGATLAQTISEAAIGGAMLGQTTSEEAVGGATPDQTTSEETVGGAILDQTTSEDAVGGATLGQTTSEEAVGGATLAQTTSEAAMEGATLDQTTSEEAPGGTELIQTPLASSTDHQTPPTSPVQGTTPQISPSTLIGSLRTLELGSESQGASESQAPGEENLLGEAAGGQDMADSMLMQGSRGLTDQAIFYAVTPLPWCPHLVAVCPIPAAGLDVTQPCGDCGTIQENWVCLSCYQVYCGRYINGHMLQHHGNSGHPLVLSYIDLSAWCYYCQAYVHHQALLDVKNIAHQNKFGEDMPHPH

With `CC1(C)C(=O)N(Cc2ccc(-c3nnc(C(F)F)o3)cn2)C(=O)c2cc(C3CCN(C4CCC4)CC3)ccc21` [Compound 145, 7-(1-cyclobutylpiperidine-4-yl)-2-((5-(5-(difluoromethyl)-1,3,4-oxadiazole-2-yl)pyridine-2-yl)methyl)-4,4-dimethylisoquinoline-1,3(2H,4H)-dione], the IC50 on HDAC6 human recombinant is 37 nM; against HDAC1, over 10 µM.
Consider `CCN1CCN(c2ccc3c(c2)C(=O)N(Cc2ccc(-c4nnc(C(F)F)o4)cn2)C(=O)C3(C)C)CC1` [Compound 129, 2-((5-(5-(difluoromethyl)-1,3,4-oxadiazole-2-yl)pyridine-2-yl)methyl)-7-(4-ethylpiperazine-1-yl)-4,4-dimethylisoquinoline-1,3(2H,4H)-dione], for which the IC50 at HDAC6 human recombinant was 26 nM; at HDAC1, over 10 µM.
The corresponding values for `CC1(C)C(=O)N(Cc2ccc(-c3nnc(C(F)F)o3)cn2)C(=O)c2cc(-c3ccoc3)ccc21` [Compound 112, 2-((5-(5-(difluoromethyl)-1,3,4-oxadiazole-2-yl)pyridine-2-yl)methyl)-7-(furan-3-yl)-4,4-dimethylisoquinoline-1,3(2H,4H)-dione] are 50 nM and over 10 µM.
Take `O=c1[nH]c2ccc(F)cc2c(=O)n1Cc1ccc(-c2nnc(C(F)F)o2)cn1` [Compound 67, 3-((5-(5-(difluoromethyl)-1,3,4-oxadiazole-2-yl)pyridine-2-yl)methyl)-6-fluoroquinazoline-2,4(1H,3H)-dione]: the IC50 was 62 nM on HDAC6 human recombinant and over 10 µM on HDAC1.
The corresponding values for `CC1(C)C(=O)N(Cc2ccc(-c3nnc(C(F)F)o3)cn2)C(=O)c2cc(-c3cccc(F)c3)ccc21` [Compound 108, 2-((5-(5-(difluoromethyl)-1,3,4-oxadiazole-2-yl)pyridine-2-yl)methyl)-7-(3-fluorophenyl)-4,4-dimethylisoquinoline-1,3(2H,4H)-dione] are 211 nM and over 10 µM.
On to `O=c1c2ccccc2n(CC2CCN(C3COC3)CC2)c(=O)n1Cc1ccc(-c2nnc(C(F)F)o2)cn1` [Compound 16, 3-((5-(5-(difluoromethyl)-1,3,4-oxadiazole-2-yl)pyridine-2-yl)methyl)-1-((1-(oxetan-3-yl)piperidine-4-yl)methyl)quinazoline-2,4(1H,3H)-dione], for which the IC50 at HDAC6 human recombinant was 257 nM; against HDAC1, over 10 µM.
As for `CC1(C)C(=O)N(Cc2ccc(-c3nnc(C(F)F)o3)cn2)C(=O)c2ccc(-c3ccoc3)cc21` [Compound 102, 2-((5-(5-(difluoromethyl)-1,3,4-oxadiazole-2-yl)pyridine-2-yl)methyl)-6-(furan-3-yl)-4,4-dimethylisoquinoline-1,3(2H,4H)-dione], the results for the IC50 on HDAC6 human recombinant and against HDAC1 were 30 nM and over 10 µM, respectively.
Take `CC1(C)C(=O)N(Cc2ccc(-c3nnc(C(F)F)o3)cn2)C(=O)c2cc(-c3ccco3)ccc21` [Compound 113, 2-((5-(5-(difluoromethyl)-1,3,4-oxadiazole-2-yl)pyridine-2-yl)methyl)-7-(furan-2-yl)-4,4-dimethylisoquinoline-1,3(2H,4H)-dione]: the results for the IC50 on HDAC6 human recombinant and on HDAC1 were 43 nM and over 10 µM, respectively.
For the molecule `CN(C)CCN(C)c1ccc2c(c1)C(C)(C)C(=O)N(Cc1ccc(-c3nnc(C(F)F)o3)cn1)C2=O` [Compound 38, 2-((5-(5-(difluoromethyl)-1,3,4-oxadiazole-2-yl)pyridine-2-yl)methyl)-6-((2-(dimethylamino)ethyl)(methyl)amino)-4,4-dimethylisoquinoline-1,3(2H,4H)-dione], the values for the IC50 on HDAC6 human recombinant and against HDAC1 were 24 nM and over 10 µM, respectively.
Regarding `CCCN1CCN(c2ccc3c(c2)C(C)(C)C(=O)N(Cc2ccc(-c4nnc(C(F)F)o4)cn2)C3=O)CC1` [Compound 148], the IC50 on HDAC6 human recombinant is 32 nM; against HDAC1, over 10 µM.
Regarding `CC(C)(C)OC(=O)N1CCN(c2ccc3c(c2)C(C)(C)C(=O)N(Cc2ccc(-c4nnc(C(F)F)o4)cn2)C3=O)CC12CC2` [Compound 79, tert-butyl 7-(2-((5-(5-(difluoromethyl)-1,3,4-oxadiazole-2-yl)pyridine-2-yl)methyl)-4,4-dimethyl-1,3-dioxo-1,2,3,4-tetrahydroisoquinoline-6-yl)-4,7-diazaspiro[2.5]octane-4-carboxylate], the IC50 on HDAC6 human recombinant was 113 nM; against HDAC1 it was over 10 µM.
`CC1(C)C(=O)N(Cc2ccc(-c3nnc(C(F)F)o3)cn2)C(=O)c2ccc(N3CCOCC3)cc21` [Compound 24, 2-((5-(5-(difluoromethyl)-1,3,4-oxadiazole-2-yl)pyridine-2-yl)methyl)-4,4-dimethyl-6-morpholinoisoquinoline-1,3(2H,4H)-dione]: the IC50 on HDAC6 human recombinant is 21 nM; against HDAC1 it was over 10 µM.
Take `CC1(C)C(=O)N(Cc2ccc(-c3nnc(C(F)F)o3)cn2)C(=O)c2c(-c3ccncc3)cccc21` [Compound 84, 2-((5-(5-(difluoromethyl)-1,3,4-oxadiazole-2-yl)pyridine-2-yl)methyl)-4,4-dimethyl-8-(pyridine-4-yl)isoquinoline-1,3(2H,4H)-dione]: the IC50 at HDAC6 human recombinant is 79 nM; on HDAC1, over 10 µM.
For the molecule `CN1CCN(c2ccc3c(c2)C(C)(C)C(=O)N(Cc2ccc(-c4nnc(C(F)F)o4)cn2)C3=O)CC12CC2` [Compound 80, 2-((5-(5-(difluoromethyl)-1,3,4-oxadiazole-2-yl)pyridine-2-yl)methyl)-4,4-dimethyl-6-(4-methyl-4,7-diazaspiro[2.5]octane-7-yl)isoquinoline-1,3(2H,4H)-dione], the IC50 on HDAC6 human recombinant is 17 nM; against HDAC1 it was over 10 µM.
Consider `CC1(C)C(=O)N(Cc2ccc(-c3nnc(C(F)F)o3)cn2)C(=O)c2ccc(N3CCN(CC(=O)N4CCCC4)CC3)cc21` [Compound 33, 2-((5-(5-(difluoromethyl)-1,3,4-oxadiazole-2-yl)pyridine-2-yl)methyl)-4,4-dimethyl-6-(4-(2-oxo-2-(pyrrolidine-1-yl)ethyl)piperazine-1-yl)isoquinoline-1,3(2H,4H)-dione], for which the IC50 on HDAC6 human recombinant is 34 nM; at HDAC1 it was over 10 µM.
As to `CC1(C)C(=O)N(Cc2ccc(-c3nnc(C(F)F)o3)cn2)C(=O)c2cc(-c3ccccc3F)ccc21` [Compound 109, 2-((5-(5-(difluoromethyl)-1,3,4-oxadiazole-2-yl)pyridine-2-yl)methyl)-7-(2-fluorophenyl)-4,4-dimethylisoquinoline-1,3(2H,4H)-dione], the IC50 on HDAC6 human recombinant was 107 nM; against HDAC1, over 10 µM.
The corresponding values for `CN(C)C(=O)C1CCN(c2ccc3c(c2)C(C)(C)C(=O)N(Cc2ccc(-c4nnc(C(F)F)o4)cn2)C3=O)CC1` [Compound 57, 1-(2-((5-(5-(difluoromethyl)-1,3,4-oxadiazole-2-yl)pyridine-2-yl)methyl)-4,4-dimethyl-1,3-dioxo-1,2,3,4-tetrahydroisoquinoline-6-yl)-N,N-dimethylpiperidine-4-carboxamide] are 32 nM and over 10 µM.
Take `CC(C)N1CC=C(c2ccc3c(=O)n(Cc4ccc(-c5nnc(C(F)F)o5)cn4)c(=O)n(C)c3c2)CC1` [Compound 124, 3-((5-(5-(difluoromethyl)-1,3,4-oxadiazole-2-yl)pyridine-2-yl)methyl)-7-(1-isopropyl-1,2,3,6-tetrahydropyridine-4-yl)-1-methylquinazoline-2,4(1H,3H)-dione]: the IC50 was 38 nM at HDAC6 human recombinant and over 10 µM on HDAC1.
Regarding `CC1(C)C(=O)N(Cc2ccc(-c3nnc(C(F)F)o3)cc2F)C(=O)c2ccccc21` [Compound 7, 2-(4-(5-(difluoromethyl)-1,3,4-oxadiazole-2-yl)-2-fluorobenzyl)-4,4-dimethylisoquinoline-1,3(2H,4H)-dione], the IC50 is 145 nM at HDAC6 human recombinant and over 10 µM against HDAC1.
Turning to `CC1(C)C(=O)N(Cc2ccc(-c3nnc(C(F)F)o3)cn2)C(=O)c2cc(-c3cccnc3)ccc21` [Compound 111, 2-((5-(5-(difluoromethyl)-1,3,4-oxadiazole-2-yl)pyridine-2-yl)methyl)-4,4-dimethyl-7-(pyridine-3-yl)isoquinoline-1,3(2H,4H)-dione], the IC50 on HDAC6 human recombinant was 17 nM; against HDAC1, over 10 µM.
Take `O=C1c2ccccc2C(=O)N1Cc1ccc(-c2nnc(C(F)F)o2)cn1` [Compound 1, 2-((5-(5-(difluoromethyl)-1,3,4-oxadiazole-2-yl)pyridine-2-yl)methyl)isoindoline-1,3-dione]: the values for the IC50 on HDAC6 human recombinant and at HDAC1 were 57 nM and over 10 µM, respectively.
For `O=C1c2ccccc2C2(CCC2)C(=O)N1Cc1ccc(-c2nnc(C(F)F)o2)cc1F` [Compound 3, 2′-(4-(5-(difluoromethyl)-1,3,4-oxadiazole-2-yl)-2-fluorobenzyl)-1′H-spiro[cyclobutane-1,4′-isoquinoline]-1′,3′(2′H)-dione] the same measures were 318 nM and over 10 µM.
On to `CC1(C)C(=O)N(Cc2ccc(-c3nnc(C(F)F)o3)cn2)C(=O)c2ccc(C3CCN(CC4CCOCC4)CC3)cc21` [Compound 62, 2-((5-(5-(difluoromethyl)-1,3,4-oxadiazole-2-yl)pyridine-2-yl)methyl)-4,4-dimethyl-6-(1-((tetrahydro-2H-pyran-4-yl)methyl)piperidine-4-yl)isoquinoline-1,3(2H,4H)-dione], for which the IC50 on HDAC6 human recombinant was 61 nM; at HDAC1, over 10 µM.
Take `CC(C)N1CCC(c2ccc3c(c2)C(=O)N(Cc2ccc(-c4nnc(C(F)F)o4)cn2)C(=O)C3(C)C)CC1` [Compound 69, 2-((5-(5-(difluoromethyl)-1,3,4-oxadiazole-2-yl)pyridine-2-yl)methyl)-7-(1-isopropylpiperidine-4-yl)-4,4-dimethylisoquinoline-1,3(2H,4H)-dione]: the values for the IC50 at HDAC6 human recombinant and against HDAC1 were 19 nM and over 10 µM, respectively.
As for `Cn1c(=O)n(Cc2ccc(-c3nnc(C(F)F)o3)cn2)c(=O)c2ccc(Br)cc21` [Compound 97, 7-bromo-3-((5-(5-(difluoromethyl)-1,3,4-oxadiazole-2-yl)pyridine-2-yl)methyl)-1-methylquinazoline-2,4(1H,3H)-dione], the half-maximal inhibitory concentration (IC50) at HDAC6 human recombinant was 61 nM; against HDAC1 it was over 10 µM.
